Among the test systems are HS 578T breast; MCF7 breast; SR leukemia; MDA-MB-231 breast; NCI/ADR-RES ovarian; NCI-H460 lung; BT-549 breast; SNB-78 CNS; LXFL 529 NSCLC; XF 498 CNS; DMS 273 small cell lung; SF-539 CNS.
Assay in all cases: growth of human tumour cells (NCI), 48 h

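Each compound was tested at five concentrations against cells in 96-well plates for 48 hours. Here, GI50 denotes the concentration required for 50% inhibition of growth. TGI denotes the concentration required for complete inhibition of growth.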

With `c1ccc(CCN2CCOCC2)nc1`, the TGI in the assay on HS 578T breast, in the assay with MCF7 breast, in the assay with SR leukemia, in the assay with MDA-MB-231 breast, in the assay on NCI/ADR-RES ovarian and with NCI-H460 lung was more than 100 µM each time. For the same compound, the TGI in the assay with BT-549 breast was more than 100 µM.
Turning to `O=C(Nc1cccc([N+](=O)[O-])c1)C(=O)C(C(=O)c1ccccc1F)C1OC(=O)C2C=CC=CC21` (stereo unspecified), the TGI with SNB-78 CNS is more than 100 µM; in the assay on LXFL 529 NSCLC, more than 100 µM; in the assay with SR leukemia, 84.7 µM; with XF 498 CNS it was more than 100 µM; in the assay on DMS 273 small cell lung, more than 100 µM; in the assay on SF-539 CNS it was 67.5 µM. In the assay with NCI-H460 lung, this compound showed a TGI of more than 100 µM.
On to `N#Cc1c(-c2cccc(Cl)c2)cc(-c2ccc(Cl)cc2)nc1N`, for which the TGI stood at 40.5 µM in the assay on HS 578T breast; 38.3 µM with MCF7 breast; 40 µM with SR leukemia; 32 µM with MDA-MB-231 breast; 63.5 µM in the assay with NCI/ADR-RES ovarian; 34.3 µM with SF-539 CNS. The TGI in the assay on NCI-H460 lung came out at 39.2 µM; in the assay on BT-549 breast it was 36.4 µM.
As to `CCOC(=O)C(=O)Nc1c(CC)cccc1C(C)CC` (stereo unspecified), the TGI in the assay with SNB-78 CNS, in the assay on LXFL 529 NSCLC, with SR leukemia, in the assay on XF 498 CNS, with DMS 273 small cell lung and in the assay on SF-539 CNS was more than 100 µM each time. Also, in the assay with NCI-H460 lung, the TGI was more than 100 µM.
As for `Cc1nc2c(O)cc3c4c(n(Cc5ccccc5)c3c2nc1C)C(=O)CCC4`, the TGI in the assay with HS 578T breast was more than 100 µM; in the assay on MCF7 breast, more than 100 µM; in the assay with SR leukemia, more than 100 µM; with MDA-MB-231 breast it was more than 100 µM; in the assay on NCI/ADR-RES ovarian, more than 100 µM; in the assay with SF-539 CNS, 48.1 µM. This compound also returned a TGI in the assay on NCI-H460 lung of more than 100 µM.
As for `O=C1C(c2c(O)[nH]c3ccccc23)=Nc2ccc(Br)cc21`, the TGI is 72.8 µM with HS 578T breast; 18.2 µM with MCF7 breast; more than 100 µM in the assay with SR leukemia; 77 µM in the assay on MDA-MB-231 breast; more than 100 µM in the assay on NCI/ADR-RES ovarian; more than 100 µM in the assay with NCI-H460 lung. Moreover, the TGI with BT-549 breast was found to be 77.2 µM.
Take `COc1cc(NC(=O)CSc2nc3ccccc3c(=O)n2CCc2ccccc2)cc(OC)c1OC`: the GI50 in the assay on HS 578T breast was 3.52 µM; with MCF7 breast it was 4.44 µM; with MDA-MB-231 breast, 1.47 µM; in the assay with NCI/ADR-RES ovarian, 3.77 µM; with BT-549 breast, 3.22 µM. Besides, the TGI in the assay with HS 578T breast was more than 100 µM; with MCF7 breast it was more than 100 µM; with MDA-MB-231 breast, 3.71 µM; with NCI/ADR-RES ovarian it was more than 100 µM; in the assay with BT-549 breast it was 9.47 µM.
For the compound `O=C1C(=c2cc3c(c4ccccc24)=NC24CCCCC2C(c2ccccc2)C=C(c2ccccc2)N34)C(=O)c2ccccc21` (stereo unspecified), the TGI in the assay with HS 578T breast is more than 100 µM; in the assay on MCF7 breast it was more than 100 µM; with SR leukemia, 79.7 µM; in the assay on MDA-MB-231 breast, more than 100 µM; with SF-539 CNS it was more than 100 µM.
For `CCCC1=C(C(=O)OCC)C(c2ccccc2OC)C(C#N)=C(N)O1` (stereo unspecified), the GI50 is more than 100 µM in the assay on HS 578T breast; 28.4 µM in the assay with MCF7 breast; 29.1 µM with SR leukemia; 22.4 µM with MDA-MB-231 breast; 37.6 µM with NCI/ADR-RES ovarian; 39.8 µM in the assay with SF-539 CNS. For the same compound, the GI50 in the assay on NCI-H460 lung is 39.8 µM; with BT-549 breast it was 62.9 µM. The TGI in the assay on HS 578T breast is more than 100 µM; with MCF7 breast, more than 100 µM; in the assay with SR leukemia it was more than 100 µM; in the assay with MDA-MB-231 breast, 57.6 µM; in the assay on NCI/ADR-RES ovarian, more than 100 µM; in the assay with SF-539 CNS, more than 100 µM. In addition, the TGI with NCI-H460 lung and in the assay with BT-549 breast was more than 100 µM in each case.
For the compound `CNS(=O)(=O)c1ccc2[nH]c(O)c(C3=Nc4ccccc4C3=O)c2c1`, the TGI with HS 578T breast, in the assay on MDA-MB-231 breast, in the assay with NCI/ADR-RES ovarian, in the assay on NCI-H460 lung and with BT-549 breast was more than 100 µM each time.
Consider `COc1cc2c(cc1OC)C1Cc3cc(OC)c(OC)cc3C(C2)O1`, for which the TGI in the assay with MCF7 breast, in the assay with MDA-MB-231 breast, with NCI/ADR-RES ovarian, with SF-539 CNS, with NCI-H460 lung and with BT-549 breast was more than 100 µM throughout.
As for `Nc1cccc2c1C1=NNC(=O)CC1C2` (stereo unspecified), the TGI in the assay with SNB-78 CNS, in the assay with MCF7 breast, in the assay on XF 498 CNS, in the assay with DMS 273 small cell lung, in the assay on NCI/ADR-RES ovarian and in the assay on SF-539 CNS was more than 100 µM in each case. In the assay with NCI-H460 lung, this compound came in with a TGI of more than 100 µM.
Take `O=C(NCCNc1nccc(-c2c(-c3cccc(O)c3)nc3sccn23)n1)Nc1cccc(C(F)(F)F)c1`: the GI50 in the assay on HS 578T breast was 3.56 µM; in the assay with MCF7 breast it was 3.57 µM; in the assay with SR leukemia, 6.08 µM; with MDA-MB-231 breast it was 3.52 µM; in the assay on NCI/ADR-RES ovarian, 26.9 µM; with SF-539 CNS, 13.1 µM. Also, in the assay on NCI-H460 lung, the GI50 was 4.79 µM. In addition, the TGI in the assay with HS 578T breast is 17.8 µM; in the assay on MCF7 breast, 16 µM; in the assay on SR leukemia, 40 µM; in the assay on MDA-MB-231 breast, 12.3 µM; in the assay with NCI/ADR-RES ovarian, more than 100 µM; with SF-539 CNS, 36.9 µM. This compound also showed a TGI in the assay with NCI-H460 lung of 20.8 µM.

The record behind these values is PubChem BioAssay (NCI).
